Source: paper PMC6770581, “New Thalidomide-Resembling Dicarboximides Target ABC50 Protein and Show Antileukemic and Immunomodulatory Activities” (Biomolecules, 2019)

How the values were obtained:
caspase 8 and caspase 9 = test: Western blot of caspase 8 and caspase 9 cleavage in K562 cells; type: cell-based, human; details: K562, 5 µM
Procedure: 0.15 × 10^6 cells/ml were seeded on a 6-well plate (Nunclon, Thermo Fisher Scientific, Waltham, MA, USA). Following 24 hour preincubation the cells were treated with either the compound or 1% DMSO (control) for 24 or 48 hours. Cells were lysed using RIPA Buffer (Sigma) supplemented with Complete Protease Inhibitor Coctail (Roche, Basel, Switzerland) and PhosSTOP (Roche). Samples containing 20 µg protein were resuspended in 4× Laemmli’s Buffer (Biorad, Hercules, CA, USA), separated on 10% acrylamide gel (TGX Stain-Free Gel Kit, Biorad) and blotted onto nitrocellulose membrane (Panreac Applichem ITW, Darmstadt, Germany). Blots were blocked in 5% non-fat dry milk in TBST (1% (v/v) Tween-20, 140 mM NaCl, 25 mM Trizma, pH = 7.4 adjusted with HCl) for 1 h and incubated overnight with the antibodies against caspase-9 (9502), caspase-8 (9746), caspase-3 (9662), caspase-3 cleaved (9661) and β-actin (3700), all from Cell Signaling Technology, and antibody against poly(ADP-ribose)polymerase (PARP, 551025) from BD Pharmingen. Membranes were incubated with appropriate species-specific secondary antibodies conjugated with HRP (Cell Signaling Technology, Danvers, MA, USA). Blots were developed using ECL substrate (Biorad, Hercules, CA, USA). The experiment was performed in at least three independent biological replicates.

[1] = tested on: HeLa cells with knocked-down ABC50 (HeLa kdABC); test: MTT viability of HeLa cells with siRNA knockdown of ABC50; type: cell-based, human; details: 48 h
Procedure: Human umbilical vein endothelial cells (purchased from Life Technologies, Carlsbad, CA, USA) were cultured according to the manufacturer’s instructions in Medium 200 supplemented with Low Serum Growth Supplement. 1 × 10^4 cells were seeded on each well on a 96-well plate (Nunc, Roskilde, Denmark). The HeLa (human cervix carcinoma, cat. #93021013), CFPAC (human pancreatic adenocarcinoma, cat. #91112501), K562 (chronic myelogenous leukemia, cat. #89121407), HL-60 (acute myelogenous leukemia, cat. #98070106), and MOLT-4 (Human acute T lymphoblastic leukemia, cat. #85011413) cells were purchased from European Collection of Authenticated Cell Cultures (ECACC). They were cultured in an RPMI 1640 medium supplemented with antibiotics (streptomycin, penicillin) and 10% fetal calf serum (20% for HL60), in a 5% CO2-95% air atmosphere. 7 × 10^3 cells were seeded on each well on a 96-well plate (Nunc). 24 hours later the cells were exposed to the test compounds. […] The cytotoxicity of all compounds was determined by the MTT (3-(4,5-dimethylthiazol-2-yl)-2,5-diphenyltetrazolium bromide) assay (Sigma, St. Louis, MO, USA). […] MTT-formazan crystals were dissolved in 20% SDS and 50% DMF at pH 4.7 and VIS light absorption was measured at 570 and 650 nm on a microplate reader FLUOstar Omega (BMG Labtech, Offenburg, Germany). […]
HeLa cells were transfected with a siRNA with the aid of Lipofectamine 3000 (Invitrogen, Carlsbas, CA, USA) according to manufacturer’s instructions. […] Unless otherwise stated, cells transfected with a given siRNA were analyzed 48 h post-transfection. siRNAs for ABC50 (NM_001090) were designed with the aid of the siDESIGN Center (www.dharmacon.com), synthesized in-house (the Department of Bioorganic Chemistry, Centre of Molecular and Macromolecular Studies, Polish Academy of Sciences (CMMS PAS) and purified by high-performance liquid chromatography (HPLC). The silencing efficiency of siRNAs was determined by western blotting of ABC50 protein in transfected HeLa cells. The following siRNA duplexes (S—sense strand, AS—antisense strand) were used: […]

Compound | cleavage of caspase 8 and caspase 9 (Western blot) (caspase 8 and caspase 9; 24 h) | cleavage of caspase 8 and caspase 9 (Western blot) (caspase 8 and caspase 9; 48 h) | viability of HeLa cells with normal levels of ABC50 (siCTL) ([1]; control siRNA, up to 2.5 µM) | reduction of viability of HeLa kdABC ([1]; si166, 5 µM) | viability of HeLa cells with knocked-down ABC50 (HeLa kdABC) ([1]; si166, up to 2.5 µM)
CCC12C(=O)C(CC)(C(c3ccccc3)=C1c1ccccc1)C1C(=O)N(CC(O)CNC(C)C)C(=O)C12 (centres unmarked) [Compound 5] | cleaved form of caspase 9 | Cleaved (i.e., activated) forms of caspases 8/9 were detected | – | – | –
CN(C)CCN1C(=O)C2C(C1=O)C1(c3ccccc3)CC2(c2ccccc2)C(c2ccccc2)=C1c1ccccc1 (centres unmarked) [Compound 6] | – | – | significantly lower | about 20% | not affected
